Results: patent US11439708B2, “Nanotube trans-membrane channels mimicking biological porins” (LAWRENCE LIVERMORE NATIONAL SECURITY, LLC, priority 2014, dated 2022)

Assays:
[1] = Single channel recordings of conductance in supported lipid bilayer; type: biochemical; conditions: 1 M KCl, transmembrane potential 75 mV, positive control
[2] = set-up: unit not given here; conditions: literature value (ref 30); cited from earlier work

For gramicidin A, the “conductance of Gramicidin channels” value [1] is listed as 0.058±0.008 nS and the “reported conductance of gramicidin” value [2] is listed as 0.0459±0.005.
